LC retention time data for 75 compounds are collected here from the RepoRT retention time repository (doi:10.1016/j.scitotenv.2015.08.078).

The data set is described as follows: RP, Waters ACQUITY UPLC BEH C18, 100 × 2.1 mm, 1.7 µm, 0.3 mL/min, estimated dead time 0.73 min; A: water + 0.1% formic acid, pH 3; B: methanol + 0.1% formic acid, pH 3; gradient (min/%B) 0/10 14/90 16/90 18/10. The note with it: stereoisomer not certain.
Regarding `CNC(=O)CSP(=S)(OC)OC` [Dimethoate], the LC retention time was 5.37 min.
For `Cc1ncc([N+](=O)[O-])n1C` [Dimetridazole], the LC retention time was 2.68 min.
The value for `CC(C)(C)C(O)C(=Cc1ccc(Cl)cc1Cl)n1cncn1` (stereo not given) [Diniconazole] was 12.2 min; that for `CN(C)CCOC(c1ccccc1)c1ccccc1` [Diphenhydramine] was 7.71 min.
For the compound `c1ccc(Nc2ccccc2)cc1` [Diphenylamine], the LC retention time was 10.5 min.
The value for `CCCOC(=O)c1ccccc1C(=O)OCCC` [Dipropyl phthalate] was 11.1 min.
The value for `CCOP(=S)(OCC)SCCS(=O)(=O)CC` [Disulfoton-sulfone] was 8.76 min.
Consider `CN(C)C(=O)Nc1ccc(Cl)c(Cl)c1` [Diuron], for which the LC retention time is 9.72 min.
Take `CC1CN(C2CCCCCCCCCCC2)CC(C)O1` (stereo not given) [Dodemorph]: the LC retention time is 13.4 min.
Regarding `COC1CC(OC2C(C)OC(OC3C(C)=CCC4CC(CC5(C=CC(C)C(C6CCCCC6)O5)O4)OC(=O)C4C=C(C)C(O)C5OCC(=CC=CC3C)C45O)CC2OC)OC(C)C1O` (stereo not given) [Doramectine], the LC retention time is 15.7 min.
For `CC1c2cccc(O)c2C(O)=C2C(=O)C3(O)C(O)=C(C(N)=O)C(=O)C(N(C)C)C3C(O)C21` (stereo not given) [Doxycycline], the LC retention time is 7.42 min.
The value for `CCOP(=S)(Oc1ccc([N+](=O)[O-])cc1)c1ccccc1` (stereo not given) [EPN] was 12.2 min; that for `CCOP(=O)(Sc1ccccc1)Sc1ccccc1` [Edifenphos] was 11.7 min.
The value for `CCC(C)C1OC2(C=CC1C)CC1CC(CC=C(C)C(OC3CC(OC)C(OC4CC(OC)C(NC)C(C)O4)C(C)O3)C(C)C=CC=C3COC4C(O)C(C)=CC(C(=O)O1)C34O)O2` (stereo not given) [Emamectin B1a] was 13.8 min.
The value for `CCOC(=O)C(CCc1ccccc1)NC(C)C(=O)N1CCCC1C(=O)O` (stereo not given) [Enalapril] was 7.86 min.
Consider `CCN1CCN(c2cc3c(cc2F)c(=O)c(C(=O)O)cn3C2CC2)CC1` [Enrofloxacin], for which the LC retention time was 4.58 min.
The value for `CCC(C)C1OC2(C=CC1C)CC1CC(CC=C(C)C(OC3CC(OC)C(OC4CC(OC)C(NC(C)=O)C(C)O4)C(C)O3)C(C)C=CC=C3COC4C(O)C(C)=CC(C(=O)O1)C34O)O2` (stereo not given) [Eprinomectin] was 15.1 min; that for `CCC1OC(=O)C(C)C(OC2CC(C)(OC)C(O)C(C)O2)C(C)C(OC2OC(C)CC(N(C)C)C2O)C(C)(O)CC(C)C(=O)C(C)C(O)C1(C)O` (stereo not given) [Erythromycin] was 9.41 min; that for `CCN(C(=O)SCc1ccccc1)C(C)C(C)C` (stereo not given) [Esprocarb] was 12.8 min.
The value for `CCS(=O)(=O)Cc1ccccc1OC(=O)NC` [Ethiofencarb sulfone] was 4.07 min; that for `CCS(=O)Cc1ccccc1OC(=O)NC` (stereo not given) [Ethiofencarb sulfoxide] was 4.6 min; that for `CCSCc1ccccc1OC(=O)NC` [Ethiofencarb] was 8.89 min.
The value for `CCOP(=S)(OCC)SCSP(=S)(OCC)OCC` [Ethion] was 13.4 min; that for `CCCCc1c(C)nc(NCC)[nH]c1=O` [Ethirimol] was 8.99 min.
As to `CCOc1ccc(C(C)(C)COCc2cccc(Oc3ccccc3)c2)cc1` [Ethofenprox], the LC retention time was 15.1 min.
Regarding `CCOC1Oc2ccc(OS(C)(=O)=O)cc2C1(C)C` (stereo not given) [Ethofumesate], the LC retention time is 9.89 min.
The value for `CCCSP(=O)(OCC)SCCC` [Ethoprophos] was 11.1 min.
Regarding `CCOc1ccc2c(c1)C(C)=CC(C)(C)N2` [Ethoxyquin], the LC retention time is 9.64 min.
The value for `CCOc1ccccc1OS(=O)(=O)NC(=O)Nc1nc(OC)cc(OC)n1` [Ethoxysulfuron] was 8.41 min; that for `CCOc1cc(C(C)(C)C)ccc1C1COC(c2c(F)cccc2F)=N1` (stereo not given) [Etoxazole] was 13.5 min.
The value for `CCOc1cc(OP(=S)(OC)OC)nc(CC)n1` [Etrimfos] was 11.6 min; that for `CCOP(=O)(NC(C)C)Oc1ccc(SC)c(C)c1` (stereo not given) [Fenamiphos] was 11.3 min.
The value for `OC(c1ccc(Cl)cc1)(c1cncnc1)c1ccccc1Cl` (stereo not given) [Fenarimol] was 11.6 min.
Regarding `N#CC(CCc1ccc(Cl)cc1)(Cn1cncn1)c1ccccc1` (stereo not given) [Fenbuconazole], the LC retention time is 11.1 min.
With `CC1(C(=O)Nc2ccc(O)c(Cl)c2Cl)CCCCC1` [Fenhexamid], the LC retention time is 11.5 min.
The value for `COP(=S)(OC)Oc1ccc([N+](=O)[O-])c(C)c1` [Fenitrothion] was 10.5 min; that for `CCC(C)c1ccccc1OC(=O)NC` (stereo not given) [Fenobucarb] was 9.78 min.
The value for `CCOC(=O)C(C)Oc1ccc(Oc2nc3ccc(Cl)cc3o2)cc1` (stereo not given) [Fenoxaprop-ethyl] was 12.7 min.
For the compound `CC(Oc1ccc(Oc2nc3ccc(Cl)cc3o2)cc1)C(=O)O` (stereo not given) [Fenoxaprop], the LC retention time is 11.6 min.
The value for `COP(=O)(OC)Oc1ccc(S(C)(=O)=O)c(C)c1` [Fenoxon sulfone] was 5.35 min; that for `COP(=O)(OC)Oc1ccc(S(C)=O)c(C)c1` (stereo not given) [Fenoxon sulfoxide] was 5.14 min; that for `CCOC(=O)NCCOc1ccc(Oc2ccccc2)cc1` [Fenoxycarb] was 12.4 min.
The value for `N#Cc1c[nH]cc1-c1cccc(Cl)c1Cl` [Fenpiclonil] was 9.52 min; that for `CC1(C)C(C(=O)OC(C#N)c2cccc(Oc3ccccc3)c2)C1(C)C` (stereo not given) [Fenpropathrin] was 13.7 min; that for `CC(Cc1ccc(C(C)(C)C)cc1)CN1CCCCC1` (stereo not given) [Fenpropidin] was 10 min.
As to `CC(Cc1ccc(C(C)(C)C)cc1)CN1CC(C)OC(C)C1` (stereo not given) [Fenpropimorph], the LC retention time is 14.1 min.
For the compound `Cc1nn(C)c(Oc2ccccc2)c1C=NOCc1ccc(C(=O)OC(C)(C)C)cc1` [Fenpyroximate], the LC retention time was 13.7 min.
Turning to `COP(=O)(OC)Oc1ccc(SC)c(C)c1` [Fenthion oxon], the LC retention time is 9.48 min.
Take `COP(=S)(OC)Oc1ccc(S(C)=O)c(C)c1` (stereo not given) [Fenthion sulfoxide]: the LC retention time was 7.8 min.
The value for `COP(=S)(OC)Oc1ccc(SC)c(C)c1` [Fenthion] was 11.7 min; that for `N#Cc1nn(-c2c(Cl)cc(C(F)(F)F)cc2Cl)c(N)c1S(=O)C(F)(F)F` (stereo not given) [Fipronil] was 11.3 min; that for `CC(C)OC(=O)C(C)N(C(=O)c1ccccc1)c1ccc(F)c(Cl)c1` (stereo not given) [Flamprop-isopropyl] was 11.7 min.
For `COC(=O)C(C)N(C(=O)c1ccccc1)c1ccc(F)c(Cl)c1` (stereo not given) [Flamprop-methyl], the LC retention time is 10.7 min.
As for `COc1cc(OC)nc(NC(=O)NS(=O)(=O)c2ncccc2C(F)(F)F)n1` [Flazasulfuron], the LC retention time was 7.14 min.
In the case of `CCCCOC(=O)C(C)Oc1ccc(Oc2ccc(C(F)(F)F)cn2)cc1` (stereo not given) [Fluaziflop-P-butyl], the LC retention time was 13.1 min.
Consider `O=C(NC(=O)c1c(F)cccc1F)Nc1ccc(CON=C(c2ccc(Cl)cc2)C2CC2)cc1` [Flucycloxuron], for which the LC retention time is 13.4 min.
Take `N#Cc1c[nH]cc1-c1cccc2c1OC(F)(F)O2` [Fludioxonil]: the LC retention time is 10.1 min.
For the compound `O=C(NC(=O)c1c(F)cccc1F)Nc1ccc(Oc2ccc(C(F)(F)F)cc2Cl)cc1F` [Flufenoxuron], the LC retention time was 13.5 min.
As to `CC1CCc2cc(F)cc3c(=O)c(C(=O)O)cn1c23` (stereo not given) [Flumequine], the LC retention time was 7.49 min.
In the case of `CC1CC2C3CC(F)C4=CC(=O)C=CC4(C)C3(F)C(O)CC2(C)C1(O)C(=O)CO` (stereo not given) [Flumethasone], the LC retention time is 9.72 min.
The value for `Cc1c(Nc2ncccc2C(=O)O)cccc1C(F)(F)F` [Flunixin] was 9.31 min; that for `CN(C)C(=O)Nc1cccc(C(F)(F)F)c1` [Fluomethuron] was 8.25 min.
As for `O=c1c2cc(F)ccc2nc(-n2cncn2)n1-c1ccc(Cl)cc1Cl` [Fluquinconazole], the LC retention time is 10.7 min.
Take `Cn1cc(-c2ccccc2)c(=O)c(-c2cccc(C(F)(F)F)c2)c1` [Fluridone]: the LC retention time was 9.63 min.
Regarding `Nc1c(Cl)c(F)nc(OCC(=O)O)c1Cl` [Fluroxypyr], the LC retention time was 7.71 min.
The value for `C[Si](Cn1cncn1)(c1ccc(F)cc1)c1ccc(F)cc1` [Flusilazole] was 11.4 min; that for `CC(C)Oc1cccc(NC(=O)c2ccccc2C(F)(F)F)c1` [Flutolanil] was 10.5 min.
The value for `OC(Cn1cncn1)(c1ccc(F)cc1)c1ccccc1F` (stereo not given) [Flutriafol] was 8.93 min; that for `O=C(Nc1ccccc1)Nc1ccnc(Cl)c1` [Forchlorfenuron] was 8.95 min; that for `CNC(=O)Oc1cccc(N=CN(C)C)c1` [Formetanate] was 2.06 min.
The value for `CCOP(=O)(SC(C)CC)N1CCSC1=O` (stereo not given) [Fosthiazate] was 8.33 min; that for `c1coc(-c2nc3ccccc3[nH]2)c1` [Fuberidazole] was 6.61 min; that for `CCCCC(C)C(OC(=O)CC(CC(=O)O)C(=O)O)C(CC(C)CC(O)CCCCC(O)CC(O)C(C)N)OC(=O)CC(CC(=O)O)C(=O)O` (stereo not given) [Fumonisin B1] was 9.48 min.
In the case of `CCCCC(C)C(OC(=O)CC(CC(=O)O)C(=O)O)C(CC(C)CCCCCCC(O)CC(O)C(C)N)OC(=O)CC(CC(=O)O)C(=O)O` (stereo not given) [Fumonisin B2], the LC retention time is 11 min.
Turning to `COC(=O)C(C)N(C(=O)c1ccco1)c1c(C)cccc1C` (stereo not given) [Furalaxyl], the LC retention time is 10 min.
